{
  "source": "paper PMC11469372",
  "about": "“Plasmodium SEY1 is a novel druggable target that contributes to imidazolopiperazine mechanism of action” (Research Square, 2024)",
  "key": {"[1]": {"target": "T1, PkSEY1 (Plasmodium knowlesi SEY1) (Plasmodium knowlesi, UniProt B3LAJ9)", "T1 construct": "Full-length, His-tagged (recombinant)", "T1 sequence (B3LAJ9 whole entry)": "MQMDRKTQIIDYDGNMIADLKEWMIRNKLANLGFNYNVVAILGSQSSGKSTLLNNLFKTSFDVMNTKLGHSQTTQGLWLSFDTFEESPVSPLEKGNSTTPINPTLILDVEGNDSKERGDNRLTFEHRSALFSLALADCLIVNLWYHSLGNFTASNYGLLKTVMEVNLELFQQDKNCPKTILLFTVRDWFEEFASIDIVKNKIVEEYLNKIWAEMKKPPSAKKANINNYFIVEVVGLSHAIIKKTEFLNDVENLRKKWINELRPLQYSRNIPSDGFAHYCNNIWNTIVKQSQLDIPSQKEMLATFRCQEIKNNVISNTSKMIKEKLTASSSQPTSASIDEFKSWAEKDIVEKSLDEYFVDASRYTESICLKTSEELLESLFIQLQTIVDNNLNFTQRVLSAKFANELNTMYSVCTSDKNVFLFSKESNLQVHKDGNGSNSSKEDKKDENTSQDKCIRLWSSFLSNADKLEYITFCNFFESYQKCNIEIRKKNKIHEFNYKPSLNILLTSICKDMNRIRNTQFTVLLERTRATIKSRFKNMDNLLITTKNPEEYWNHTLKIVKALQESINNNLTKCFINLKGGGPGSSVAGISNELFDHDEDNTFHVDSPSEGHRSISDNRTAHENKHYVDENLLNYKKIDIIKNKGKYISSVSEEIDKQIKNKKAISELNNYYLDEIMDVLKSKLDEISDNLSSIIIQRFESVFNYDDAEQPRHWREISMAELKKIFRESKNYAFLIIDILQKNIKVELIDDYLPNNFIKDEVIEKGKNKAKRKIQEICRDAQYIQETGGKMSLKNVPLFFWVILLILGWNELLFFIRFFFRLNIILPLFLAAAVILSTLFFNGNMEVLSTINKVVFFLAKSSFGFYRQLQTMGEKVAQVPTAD", "experiment": "surface plasmon resonance (Biacore […], NTA chip)", "type": "binding"}, "HsFLOT1": {"target": "T2, HsFLOT1 (Homo sapiens, UniProt O75955)", "T2 construct": "gene FLOT1", "T2 sequence (O75955 1-427)": "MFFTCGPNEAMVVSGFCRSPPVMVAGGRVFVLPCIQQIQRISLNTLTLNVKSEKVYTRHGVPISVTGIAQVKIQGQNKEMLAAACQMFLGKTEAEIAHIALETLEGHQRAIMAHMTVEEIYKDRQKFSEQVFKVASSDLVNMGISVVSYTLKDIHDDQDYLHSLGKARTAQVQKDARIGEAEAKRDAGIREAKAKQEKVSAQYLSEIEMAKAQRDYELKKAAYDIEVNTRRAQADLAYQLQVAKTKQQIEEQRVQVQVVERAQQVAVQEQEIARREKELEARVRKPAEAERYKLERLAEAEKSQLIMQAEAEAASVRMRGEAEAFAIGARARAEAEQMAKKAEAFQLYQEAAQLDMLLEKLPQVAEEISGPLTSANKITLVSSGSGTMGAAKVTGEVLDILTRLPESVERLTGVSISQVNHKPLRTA", "experiment": "proteomic affinity chromatography with GNF179 beads, competition with free GNF179 (TMT MS/MS), lysate", "type": "biochemical"}, "PfSTOML": {"target": "T3, PfSTOML (Plasmodium falciparum, UniProt O77376)", "T3 construct": "gene PF3D7_0318100", "T3 sequence (O77376 entry or part of it)": "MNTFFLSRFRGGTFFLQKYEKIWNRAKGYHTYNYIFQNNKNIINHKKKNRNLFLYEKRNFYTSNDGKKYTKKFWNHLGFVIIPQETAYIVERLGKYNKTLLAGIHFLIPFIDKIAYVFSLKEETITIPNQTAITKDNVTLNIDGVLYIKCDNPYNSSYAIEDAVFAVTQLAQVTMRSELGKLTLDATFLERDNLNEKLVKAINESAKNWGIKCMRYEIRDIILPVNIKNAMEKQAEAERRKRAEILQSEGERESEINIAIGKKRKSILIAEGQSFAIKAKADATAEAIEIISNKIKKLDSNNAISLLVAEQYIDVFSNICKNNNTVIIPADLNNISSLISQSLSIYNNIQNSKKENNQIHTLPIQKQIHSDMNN", "experiment": "proteomic affinity chromatography with GNF179 beads, competition with free GNF179 (TMT MS/MS), parasite lysate", "type": "biochemical"}, "HsFLOT2": {"target": "T4, HsFLOT2 (Homo sapiens, UniProt Q14254)", "T4 construct": "gene FLOT2", "T4 sequence (Q14254 2-428)": "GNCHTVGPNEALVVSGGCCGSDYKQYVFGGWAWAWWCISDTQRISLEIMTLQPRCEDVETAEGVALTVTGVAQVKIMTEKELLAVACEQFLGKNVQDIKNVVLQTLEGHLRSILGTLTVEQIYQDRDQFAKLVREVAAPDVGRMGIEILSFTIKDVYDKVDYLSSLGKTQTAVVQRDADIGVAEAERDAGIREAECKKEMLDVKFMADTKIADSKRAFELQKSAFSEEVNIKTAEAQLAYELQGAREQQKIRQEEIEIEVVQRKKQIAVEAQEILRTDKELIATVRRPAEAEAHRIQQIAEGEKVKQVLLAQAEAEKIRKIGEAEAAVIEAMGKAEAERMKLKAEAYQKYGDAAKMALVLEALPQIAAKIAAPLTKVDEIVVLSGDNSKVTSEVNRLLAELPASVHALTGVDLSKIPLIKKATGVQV", "experiment": "proteomic affinity chromatography with GNF179 beads, competition with free GNF179 (TMT MS/MS), lysate", "type": "biochemical"}, "[2]": {"target": "T5, PvSEY1 (Plasmodium vivax SEY1) (Plasmodium vivax, UniProt A5K168)", "T5 construct": "Full-length PvSEY1-myc-His from E. coli, Ni-NTA eluate", "T5 sequence (A5K168 1-889)": "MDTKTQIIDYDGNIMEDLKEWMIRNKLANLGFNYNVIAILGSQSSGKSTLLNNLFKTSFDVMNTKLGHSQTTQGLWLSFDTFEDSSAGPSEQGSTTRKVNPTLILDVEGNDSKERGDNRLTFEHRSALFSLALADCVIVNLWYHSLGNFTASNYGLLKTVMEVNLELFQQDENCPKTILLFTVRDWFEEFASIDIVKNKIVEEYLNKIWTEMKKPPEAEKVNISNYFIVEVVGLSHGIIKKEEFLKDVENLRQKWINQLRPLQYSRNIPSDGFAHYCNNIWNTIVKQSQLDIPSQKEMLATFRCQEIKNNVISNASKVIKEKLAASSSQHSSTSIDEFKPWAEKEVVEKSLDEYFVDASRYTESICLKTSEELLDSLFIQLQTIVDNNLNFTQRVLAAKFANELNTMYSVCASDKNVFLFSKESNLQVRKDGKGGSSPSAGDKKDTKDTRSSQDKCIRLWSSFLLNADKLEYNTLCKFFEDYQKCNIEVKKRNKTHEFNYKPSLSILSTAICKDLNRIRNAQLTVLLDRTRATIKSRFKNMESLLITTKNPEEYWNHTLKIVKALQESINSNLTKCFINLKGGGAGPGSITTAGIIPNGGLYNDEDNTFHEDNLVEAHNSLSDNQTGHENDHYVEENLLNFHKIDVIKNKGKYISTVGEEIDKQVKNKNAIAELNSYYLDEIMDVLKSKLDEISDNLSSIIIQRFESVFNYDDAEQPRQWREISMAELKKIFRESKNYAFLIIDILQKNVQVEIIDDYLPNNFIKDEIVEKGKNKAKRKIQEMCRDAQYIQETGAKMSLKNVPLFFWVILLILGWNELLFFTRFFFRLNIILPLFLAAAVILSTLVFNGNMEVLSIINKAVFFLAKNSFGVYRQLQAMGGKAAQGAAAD", "experiment": "GTPase assay (EnzChek free phosphate) at […] GNF179; also destabilized in lysate thermal shift assay", "type": "biochemical"}},
  "data": [
    {"smiles": "CC1(C)c2nc(-c3ccc(F)cc3)c(Nc3ccc(Cl)cc3)n2CCN1C(=O)CN", "note": "[GNF179]", "values": [
      {"measurement": "Kd", "setting": "[1]", "value": 144000, "unit": "nM"},
      {"measurement": "Kd", "setting": "HsFLOT1", "value": 340, "unit": "nM"},
      {"measurement": "Kd", "setting": "PfSTOML", "value": 3170, "unit": "nM"},
      {"measurement": "Kd", "setting": "HsFLOT2", "value": 390, "unit": "nM"},
      {"measurement": "GTPase assay (EnzChek free phosphate) at 125 μM GNF179; also destabilized in lys", "setting": "[2]", "value": "These results indicate a reduction of PvSEY1 GTPase activity by GNF179."}
    ]}
  ]
}
